Source: patent US20080188449A1, “Treatment of Conditions Caused By Calcium Abnormalities” (priority 2004, published 2008)

Tests used:
[1] = system: HeLa cells; assay: Cellular fractionation of [^3H]-triptolide labeled HeLa cells; type: binding
Excerpt: To address first the nature of triptolide binding within the cell, Applicants determined this interaction was reversible as [^3H]-triptolide labeling was out competed by subsequent addition of excess unlabeled triptolide (FIG. 2A). […] Although 25% of the total cellular counts (i.e., representing bound triptolide) were found in the cytosolic fraction, it is uncertain whether this is specific binding or simply that free triptolide had dissociated from its binding protein due to experimental manipulation during fractionation. Since the data thus far had only shown binding within whole cells, Applicants next determined if this triptolide binding protein could be further characterized and/or enriched by its association with chromatographic reagents. HeLa cells were once again labeled with [^3H]-triptolide and total cell lysates were then passed over the anion exchange resin DEAE. […] Importantly, Applicants also observed that [^3H]-triptolide would only bind to intact cells in culture but would not bind to any component of a total cellular lysate as assessed by interaction with the DEAE resin. […]
For cellular fractionation studies, cells were allowed to swell on ice and lysed by passage through a syringe in a hypotonic lysis buffer (10 mM Tris-HCl+complete protease inhibitors). […] Gel slices were measured out in equal increments and the molecular weight range of each was calculated. […]

[2] = system: HeLa cells; assay: [^3H]-triptolide competition binding in HeLa cells; conditions: for competition for [^3H]-triptolide binding: 1 μM competitor
Method: To gain insight into triptolide's mechanism of action Applicants sought to determine its specific binding activity utilizing a system employing [^3H]-triptolide. In addition to competition with 1 μM or 10 μM unlabeled triptolide, Applicants also measured the binding affinities of triptolide analogs (FIG. 1A). These analogs have been previously described and differ structurally from triptolide in the hydrolysis of the 12,13 epoxide (2), and formation of the ketone at the C-14 hydroxyl (3) (FIG. 1A). […] The effective interaction of these analogs with a presumed triptolide binding entity led us to their use in subsequent experiments addressing the mode of triptolide's biological functions.
To address first the nature of triptolide binding within the cell, Applicants determined this interaction was reversible as [^3H]-triptolide labeling was out competed by subsequent addition of excess unlabeled triptolide (FIG. 2A). […] Although 25% of the total cellular counts (i.e., representing bound triptolide) were found in the cytosolic fraction, it is uncertain whether this is specific binding or simply that free triptolide had dissociated from its binding protein due to experimental manipulation during fractionation. Since the data thus far had only shown binding within whole cells, Applicants next determined if this triptolide binding protein could be further characterized and/or enriched by its association with chromatographic reagents. HeLa cells were once again labeled with [^3H]-triptolide and total cell lysates were then passed over the anion exchange resin DEAE. Batch elutions with increasing NaCl concentrations were used to disassociate interactions of variable charge. […] Importantly, Applicants also observed that [^3H]-triptolide would only bind to intact cells in culture but would not bind to any component of a total cellular lysate as assessed by interaction with the DEAE resin. Negative results for a triptolide binding interaction were also observed with DNA-cellulose and the cation exchange resin SPFF (sulphopropyl).
Labeling studies were performed by the addition of approximately 30 nM [^3H]-triptolide directly into the culture media for one hour at 37° C. For cold competition studies, 1 μM triptolide was incubated with the cells for one hour before or after the addition of [^3H]-triptolide. Triptolide analog studies followed a similar protocol where concentrations used for competition were either 1 or 10 μM added before [^3H]-triptolide. Medium was removed and cells were washed 3× in cold PBS. Total cell lysates were prepared (150 mM NaCl, 50 mM Tris-HCl pH 7.4, 1 mM EDTA, 1% Triton X-100, and Complete protease inhibitors (Roche)) and protein was quantitated before measuring the [^3H]-triptolide binding activity via liquid scintillation.

[3] = system: HeLa cells; assay: [^3H]-triptolide binding with or without extracellular calcium
Excerpt: To understand further the nature of triptolide's interaction within the cell, Applicants altered cell culture conditions to examine if [^3H]-triptolide binding would be affected. […] Additionally, it has been established that aberrant calcium signaling can result in cell death (Rizzuto, et al., 2003, Oncogene 22, 8619-8627; Orrenius, et al., 2003, Nat Rev Mol Cell Biol 4, 552-565). Due to triptolide's own link with NFκB and NF-AT and its propensity to induce cell death, Applicants examined if triptolide binding could be modulated by free calcium levels. Adherent HeLa cells were cultured in the presence or absence of calcium containing medium for 16 hours before [^3H]-triptolide addition. […] It is also noteworthy that an increase in cell density (not cell number) also increases triptolide binding regardless of calcium levels. Additionally, specific calcium chelation by 10 mM EGTA for one hour in calcium containing medium increased binding by nearly 2 fold.
Labeling studies were performed by the addition of approximately 30 nM [^3H]-triptolide directly into the culture media for one hour at 37° C. […] Total cell lysates were prepared (150 mM NaCl, 50 mM Tris-HCl pH 7.4, 1 mM EDTA, 1% Triton X-100, and Complete protease inhibitors (Roche)) and protein was quantitated before measuring the [^3H]-triptolide binding activity via liquid scintillation.

[4] = system: HeLa cells; assay: [^3H]-triptolide saturation (specific) binding assay; conditions: saturation plot
Method: Based upon the data above, Applicants next sought to determine if triptolide binding was saturable and if more than one protein (or binding site) was being targeted. Determination of the [^3H]-triptolide binding affinity (KD) and the binding capacity per cell (Bmax) were calculated using a saturation plot. HeLa cells were cultured to 90% confluency and subsequently treated with 0-100 nM of [^3H]-triptolide for one hour. Non-specific binding was defined using 2 μM cold triptolide as competitor. Bmax was calculated to be 99±19 fmol triptolide bound/10^5 cells of triptolide binding sites.
Saturation binding assays were accomplished in HeLa cells adhered on 6-well plates in DMEM+10% FBS. All samples were at least 90% confluent at time of addition of triptolide. Non-specific binding of [^3H]-triptolide was assessed by the pre-incubation of 2 μM (non-labeled) triptolide for one hour. Following cold competition (or DMSO) 5, 10, 20, 50, or 100 nM of [^3H]-triptolide was added into the cultures for an additional one hour, and then cells were lysed and counted for binding activity.

[5] = system: HeLa cells; assay: HeLa cell viability by trypan blue dye exclusion; type: cell-based
Method: Since extracellular calcium concentration can influence triptolide binding Applicants sought to determine if the presence of calcium influences the rate of triptolide-mediated apoptosis. To first establish the growth rate of HeLa in media±calcium, cell counts were performed over a 72 hour time course. Although calcium-free media caused cells to detach more easily, the overall growth rates were similar where cell doubling occurred every 24 hours on average (FIG. 3B). For triptolide experiments, cells were initially equilibrated in medium±calcium for 16 hours before the addition of 100 nM triptolide. Cell death was assessed by trypan blue dye exclusion at 24, 48, and 72 hours post drug treatment. In the presence of calcium-containing medium, triptolide induced at least 50% cell death by 24 hours with this trend continuing through later time points (FIG. 3C).
Applicants' results have implicated reversible binding of triptolide to a potential binding protein or complex that can be regulated by calcium. To understand if triptolide function is further separable between cell death and NFκB inhibition, Applicants examined the effect of concentration on these two endpoints. HeLa cells were cultured in the presence of 0, 10, 25, 50, or 100 nM of triptolide and separately assessed for cell death or the ability to suppress NFκB transactivation promoted by TNF-α. Following 24-48 hours of culture, viable cells were recovered and counted. Following 24 hours, triptolide concentrations from 25-100 nM caused greater than 50% of the cells to undergo cell death as assessed by detachment, clumping and the failure to exclude trypan blue dye. […] This is consistent with previous studies showing that low doses of triptolide cause cell cycle arrest rather than apoptosis (Kiviharju, et al., 2002, Clin Cancer Res 8, 2666-2674).
(§1) Based upon Applicants' studies examining the concentration dependent effect of triptolide on the two measured biological endpoints, cell death and transcriptional repression, Applicants wanted to determine how modulating triptolide's structure may also discriminate between the two pathways. For cell viability assays, HeLa cells were incubated with 0, 0.1, 1, or 10 μM of each analog or triptolide for 24 hours and then counted using trypan blue dye exclusion. […] NFκB transcriptional inhibition was measured using the κB-luciferase assay as previously described following 5 hours of incubation with each analog (0-10 μM) and TNF-α addition.
HeLa cells were incubated in DMEM or SMEM (Gibco) media+10% FBS and maintained at 37° C. in 5% CO2 for all experiments. HeLa cell viability was assessed by trypan blue dye exclusion, as well as by morphological examination (non-viable cells were rounded and detached from culture plate).

[6] = system: NFκB transactivation; assay: κB-luciferase reporter assay (TNF-α induced); type: cell-based; conditions: 5 hours
Method: Having established that triptolide induced cell death is dependent upon free calcium concentration, Applicants next determined if this was also a requirement for the inhibition of NFκB transcription. HeLa cells were transiently transfected with the κB-luciferase reporter construct for 8 hours before being washed and then cultured in the presence or absence of calcium containing medium for 16 hours. Triptolide (100 nM) was pre-incubated with cells for 1 hour before addition of 15 ng/ml of TNF-α for 4 hours.
As an additional experiment, transcriptional activity was also assessed by site-directed calcium buffering. HeLa cells were co-transfected with the κB-luciferase plasmid as well as one of the following constructs: GFP empty vector, NES-PV-GFP, or NLS-PV-GFP and proper GFP localization was confirmed. Cells were grown in the presence of calcium for 24 hours before the addition of 100 nM triptolide and 15 ng/ml TNF-α.
NFκB transactivation was examined using the κb-luciferase reporter construct. HeLa cells were transiently transfected and pre-treated with 0-100 nM triptolide for one hour prior to TNF-α addition. Cells were assessed for NFκB driven luciferase expression after an additional five hours of incubation, at which time TNF-α had induced transcriptional activity by approximately 15-fold in control cells. […] The results thus far support a divergence of triptolide-mediated functions: the pathway regulating growth arrest/death is more sensitive to triptolide and calcium than the mechanism leading to transcriptional repression of NFκB.
as §1
A triple κB promoter-Luciferase reporter construct was a gift of Sankar Ghosh (Yale University). HeLa cells were plated at a density of 2×10^5 in 12 well plates and transfected with 100 ng of the κB-Luciferase plasmid plus Lipofectamine 2000 (Invitrogen) for 24 hours before the addition of 100 nM triptolide for one hour and 15 ng/ml of recombinant (human) TNF-α (Roche) for an additional five hours. The transfection efficiency of HeLa was determined to be 80-90%, and all samples were normalized to protein concentration. Luciferase assays were performed using the Firefly luciferase kit as per manufacturer's protocol (Promega) and results obtained on the Wallac Victor2 1420 Multilabel Counter (Perkin Elmer).

| SMILES | total cellular counts found in the cytosolic fraction ([1]; S-100) [%] | cellular fraction bound ([1]; S-100 / P-100 fractionation) | nature of binding interaction ([2]; excess unlabeled triptolide added after [^3H]-triptolide) | increase of binding ([3]; 10 mM EGTA for one hour in calcium containing medium) [fold] | increase of [^3H]-triptolide binding ([3]; absence of extracellular calcium for 16 hours) | binding capacity per cell (Bmax) [4] | cell viability ([5]; 0.1 μM, 24 hours) | cell growth ([5]; 0.1 μM, out to 72 hours) | cell death ([5]; 1 μM, 24 hours) | competition for [^3H]-triptolide binding ([2]; HeLa cells) | effect on NFκB transcriptional activity ([6]; 1 μM) | effect on cells ([5]; 25 nM) | profile of cell death ([5]; 0.1-10 μM, 24 hours) | displacement of [^3H]-triptolide binding ([2]; 1 or 10 μM competitor one hour before [^3H]-triptolide, HeLa cells) | profile of transcriptional repression ([6]; 0.1-10 μM) |
| --- | --- | --- | --- | --- | --- | --- | --- | --- | --- | --- | --- | --- | --- | --- | --- |
| CC(C)[C@]12O[C@H]1[C@@H]1O[C@]13[C@]1(O[C@H]1C[C@H]1C4=C(CC[C@@]13C)C(=O)OC4)[C@@H]2O [[^3H]-triptolide] | 25 | predominantly to the membrane fraction (P-100) | reversible | ~2 | 2-4 fold | 99±19 fmol triptolide bound/10^5 cells |  |  |  |  |  |  |  |  |  |
| CC(C)C1(O)C(O)C2OC23C2(C)CCC4=C(COC4=O)C2CC2OC23C1O (stereo not shown) [analog (2), Triol-Triptolide] |  |  |  |  |  |  | not different from the untreated control | overall growth suppressive effect | greater than 50% | efficiently competes | no effect |  |  |  |  |
| CC(C)[C@]12O[C@H]1[C@@H]1O[C@@]13[C@@]1(C)CCC4=C(COC4=O)[C@@H]1C[C@@H]1O[C@@]13C2=O [analog (3), Triptonide] |  |  |  |  |  |  |  |  |  | higher competitive ability than triptolide itself |  | only a growth suppressive effect | mimicked triptolide with no significant difference | near complete | mimicked triptolide with no significant difference |
